Where only a bound is given, the exact number is not on record here.

The term melting point denotes the temperature of the solid-liquid transition. Compound `CC(C)c1nc2cc3c(cc2[nH]1)NC(=O)C3(C)C` yielded a melting point of 282 to 284 °C. With `O=CNCCCCCCO` the figure was 43.5 to 45 °C; with `CC(C)(C)OC(=O)C1CCNC1=S` (stereo unspecified), 110 to 111 °C; with `CN1C(=O)c2cscc2Nc2cc(Cl)c(Cl)cc21`, 265 to 267 °C. Turning to `N#CCCCc1ncc(Br)cc1[N+](=O)[O-]`, the melting point lay within 73 to 76 °C. In turn, `CC(C)C(=O)c1cn(-c2c(Cl)cc(C(F)(F)F)cc2Cl)nc1C#N` had a melting point of 168 to 169 °C. Under `Nc1nc(-c2ccccn2)nc2ccccc12` stands 173 to 174 °C; under `NCc1ccccc1N`, 58 to 61 °C.

`COC1OC(=O)C(OC)(OC)C1Cl` (stereo unspecified) gave a melting point of 90 °C. `CCOC(=O)C1=C(C)NC(NC(C)=O)=C(C(=O)OCC)C1C` (stereo unspecified) yielded a melting point of 105 °C. On to `O=C(c1cccs1)N1CCCC1`, for which the melting point lay in the range of 66 to 68 °C. For the compound `COc1ccc(Br)c2cc(C(=O)c3cccc(C(F)(F)F)c3)oc12`, the melting point lay in the range of 78 to 79 °C. In turn, `Cc1ccc(-c2ccc(-c3nnnn3CCCCCCc3cccnc3)cc2)cc1C` displayed a melting point of 101 to 103 °C.

`O=C(Nc1c(OCCN(Cc2ccccc2)C(=O)C(F)(F)F)cccc1[N+](=O)[O-])C(F)(F)F` displayed a melting point of 114 to 115 °C. In the case of `CCOc1ccc(N)c(S)c1`, the melting point was found to be 104 °C. Under `CCCC(CCC)C(=O)c1ccc(O)c(C(=O)O)c1` stands 118 °C; under `O=C(Cc1c(-c2ccccc2)c2cc(CN3CCNCC3)c(Cl)cc2oc1=O)Nc1ccc(Cl)cc1C(F)(F)F`, 237 to 242 °C.

`COc1cc(C(=O)Nc2cc(C(=O)c3ccccc3)ccc2N2CCOCC2)cc(OC)c1OC` registered a melting point of 171 to 172 °C. Under `O=C1c2cc(Cl)ccc2CN2C(=NO)CCC12` (stereo unspecified) stands 130 to 136 °C. The compound `COC1(OC)CCC2=C(CC(C)C3C2CCC2(C)CCCC32)C1` (stereo unspecified) came in with a melting point of 57 °C. With `CCOC1=NC(N)=C(C(=O)OC)C(c2cccc([N+](=O)[O-])c2)C1C(=O)OC` (stereo unspecified) the figure was 163 °C. With `CCOc1ccc(OCCCN2CCC(C(O)(c3ccc(F)cc3)c3ccc(F)cc3)CC2)cc1` the figure was 89 to 91 °C; with `Cn1nnc2ccc(C(c3ccc(Cl)cc3)n3ccnc3)cc21` (stereo unspecified), 87.7 °C.

`CC(C)CCNC(=O)CNC(=O)C(Br)Cc1ccccc1` (stereo unspecified): the melting point came to 110 °C. With `CNc1ccc2c(c1)Sc1cc(NC)ccc1N2C(C)=O` the figure was 137 °C; with `CCN(CCO)c1ccc(I)cc1`, 53 to 54 °C; with `CCOc1cnccc1C#N`, 56 to 57 °C. With `O=C1NC2CCC(Cc3ccc(O)cc3)CC2CC1CO` (stereo unspecified) the figure was 126 to 128 °C; with `CCc1cc(O)c(C(C)=O)c(OC2OC(COC(C)=O)C(OC(C)=O)C(OC(C)=O)C2OC(C)=O)c1` (stereo unspecified), 125 to 127 °C. With `COc1cccc(NC(=O)NCC(=O)N(c2ccccc2)c2ccccc2)c1` the figure was 182 °C; with `CCC(C)CCOc1c(-c2ccc(S(C)(=O)=O)cc2)cnn(-c2ccc(F)c(F)c2)c1=O` (stereo unspecified), 100 to 102 °C; with `CCOc1cccc(-c2ccnc3c(C(=O)c4cccs4)cnn23)c1`, 146 to 148 °C. Regarding `Cc1ccccc1-c1nc(-c2ccc(-c3ccccc3)cc2)n[nH]1`, the melting point was 165 to 167 °C. As for `C=C(C)C(=O)NNc1ccnc2c(NC(=O)c3c(Cl)cccc3Cl)cccc12`, the melting point fell in the range of 277 to 280 °C.

Turning to `CC1(C)CCC(C)(C)c2cc(-c3cc(-c4ccc(C(=O)O)cc4)ccc3-c3ccccc3)ccc21`, the melting point fell in the range of 287 to 288 °C. Under `CCCCN(CC)c1nc(C)nc2c1NC(=S)CN2c1ccc(C(C)C)cc1Br` stands 148 to 149 °C; under `COc1ccc(-c2c(C)cc3c(O)cc(C)nn23)c(C)c1`, 234 to 237 °C; under `NS(=O)(=O)c1nc(Cl)cs1`, 137 to 142 °C. With `Cc1cnc2n1N=C(c1ccc(F)cc1)c1cc3c(cc1C2)OCO3` the figure was 190 °C; with `Cc1ccc(C(=O)Cn2c(=NS(=O)(=O)c3ccc(C)cc3)sc3ccccc32)cc1`, 180 to 182 °C.

`O=c1[nH]c2cc(Cl)ccc2n1C1CCN(CCNC(c2ccc(F)cc2)c2ccc(F)cc2)CC1`: the melting point came out at 199 °C.

For `O=C(O)C(CC1CCCCC1)c1ccc(OCc2ccccn2)cc1` (stereo unspecified), the melting point lay within 100 to 103 °C. In turn, `CCn1ccc(OC2c3cc(C#N)ccc3OC(C)(C)C2(C)O)cc1=O` (stereo unspecified) yielded a melting point of 166 to 168 °C. Compound `CC(C)CC(O)(Cn1cncn1)c1ccccc1` (stereo unspecified) registered a melting point of 94 to 95 °C. With `Cn1c(C(F)(F)F)cc(=O)n(-c2cc(OS(C)(=O)=O)c(Cl)cc2F)c1=O` the figure was 176 to 178 °C; with `COC1(c2cccc(S(=O)(=O)c3ccc4c(ccc(=O)n4C)c3)c2)CCOCC1`, 204 to 207 °C; with `Cn1cc(-c2ccccc2)c(=O)c(-c2c(Cl)cccc2Cl)c1`, 223 to 226 °C. Under `CC(O)(c1ccccc1)c1cc(C2CCCCC2)ccc1O` (stereo unspecified) stands 119 °C; under `NC(=O)c1nc(-c2ccncc2)nc2c1NC(=O)CN2c1ccccc1`, 298 to 304 °C; under `CCCn1c(=O)nc(SC)c2[nH]c(C3CCCC3)nc21`, 258 to 259 °C. Under `COc1ccc(N2CC(CN3CCC(O)(c4ccc(Cl)cc4)CC3)OC2=O)cc1` (stereo unspecified) stands 143 to 144 °C; under `O=C(O)c1cc([N+](=O)[O-])ccc1NCCc1ccccc1`, 116 to 118 °C; under `COC(=O)Cc1cn(C)nc1OCc1ccc(OCc2csc(-c3ccccc3)n2)nc1`, 85 to 86 °C. `CC(C)(C)c1ccc(CC[C@@H](N)[C@H](O)c2ccc(F)cc2)cc1` (racemic) had a melting point of 139 to 140 °C. With `Cc1cccc(COc2cccc(OCc3ccc4cc(F)ccc4n3)c2)c1C(=O)O` the figure was 153 to 154 °C; with `CCN(CC)CCCCC(=O)c1ccc2c(c1)C(=O)c1cc(C(=O)CCCCN(CC)CC)ccc1-2`, 108 to 110 °C; with `COC(=O)c1cccc(Oc2cccc(Br)n2)c1`, 68 to 69 °C. Under `Nc1c2c(nc3cccc(F)c13)CCCC2` stands 175 °C. With `CONc1nc(Nc2ccc(C#N)cc2)nc(Oc2c(C)cc(C#N)cc2C)c1Br` the figure was 185 to 186 °C. For the compound `COC(=O)[C@H](CC(C)C)NC(=O)CCC(=O)Nc1ccc(Nc2ccccc2)cc1`, the melting point was 134 to 135 °C. Compound `O=C(O)C(=O)c1ccc(OCCOc2cccc3ccccc23)cc1` came in with a melting point of 124 to 125 °C.

In the case of `CCC(CC)n1c(=O)n(C)c2c(Oc3c(C)cc(C)cc3C)nc(C)cc21`, the melting point was in the range of 152 to 154 °C.

`CCOC(=O)CCN1CCN2c3ccccc3Cc3ccccc3C2C1` (stereo unspecified) yielded a melting point of 159 to 160 °C. `COc1cc(C)c(C(=O)c2c(OC)ncc(Cl)c2C)c(OC)c1OC` yielded a melting point of 92 to 94 °C. With `N#Cc1c(N2CCc3ccccc3CC2)nc2n(c1=O)CCC2` the figure was 184 to 190 °C; with `Cc1cc(C(N)=O)ncc1C(c1c(F)ccc(F)c1F)S(=O)(=O)CCC(F)(F)C(F)(F)F` (stereo unspecified), 155 to 156 °C; with `O=C(NCCCSc1ccccn1)c1cccs1`, 81 to 82 °C. With `CC(C)c1cc(Oc2ccccc2)cc(C(C)C)c1N` the figure was 71 to 72 °C; with `COC(=O)/C=C/Oc1ccc(Oc2ccc(F)cc2F)c(NS(C)(=O)=O)c1`, 98.5 to 98.9 °C. `CCOC(=O)c1c(C(F)(F)F)nc2cc(C(F)(F)F)ccc2c1O` displayed a melting point of 156 °C. In turn, `CCCCCCC1C(=O)NC2(C(O)C3C=CCCC3)C(=O)OC12C` (stereo unspecified) came in with a melting point of 157 °C.

`CC(C)C(C)(C(N)=O)N1C(=O)c2cccnc2C1=O` (stereo unspecified) had a melting point of 176 to 178 °C.

Regarding `Cc1c(C)n(Cc2ccccc2)c2ncnc(Cl)c12`, the melting point fell in the range of 115 to 116 °C.

Turning to `CCCCCCCCCCCCCCOc1ccc(CC(=O)NCCc2ccccn2)cc1`, the melting point lay in the range of 90 to 91 °C. With `COc1cncnc1N1CCN(CCCc2c[nH]c3ccc(N(C)S(=O)(=O)C(F)(F)F)cc23)CC1` the figure was over 230 °C; with `O=C(Cn1nccc1-c1ccc(Oc2ccc(F)cc2)cc1)N1CCOCC1`, 122 to 124 °C. `O=C(NCCN1CCc2ccc3c(c21)CCO3)C1CC1`: the melting point lay within 147 to 149 °C.

Turning to `Cc1ccc(S(=O)(=O)Oc2c(Cl)cc(C3=NNC(=O)CC3)cc2Cl)cc1`, the melting point is 208 to 209 °C. Regarding `COc1ccc(F)cc1C1CC(=O)CC(=O)C1`, the melting point lay in the range of 160 to 161 °C.

Consider `Cc1cn(Cc2ccccc2)c(=O)[nH]c1=O`, for which the melting point is 170 to 173 °C. Regarding `c1ccc(-c2ccc(-c3cccs3)s2)cc1`, the melting point was 116 to 118 °C. `CCCCOc1c(C#N)c(C#N)c(OCCCC)c2ccccc12` returned a melting point of 69 to 70 °C. As to `CCC(=O)NC1Cc2ccccc2C(Cc2ccccc2)C1` (stereo unspecified), the melting point fell in the range of 148 to 149 °C.

In turn, `COC(=O)c1ccccc1S(=O)(=O)NC(=O)n1nc(Cl)n(N(C)C)c1=O` had a melting point of 146 °C. Under `CC1CCC2CC(=O)N(Cc3ccccc3)C3OC4(C)CCC1C23OO4` (single isomer, unassigned; (-)) stands 177 to 179 °C.

In turn, `C[C@H](NC(=O)C1(C)Oc2ccc([N+](=O)[O-])cc2NC1=O)C(=O)N[C@H](CCC(=O)O)C(N)=O` (stereo partly specified) registered a melting point of 142 to 146 °C.

`Fc1ccc(Cn2c(NC3CCN(CCCCNc4nc5cnccc5[nH]4)CC3)nc3ccccc32)cc1`: the melting point was 228 °C. For the compound `CCC(CC)C(NC(=O)c1ccc(Cl)cc1)NC(=NC#N)Nc1cccnc1` (stereo unspecified), the melting point fell in the range of 185 to 187 °C.

`CN(C)Cc1nc(C(=O)N(C)C)nn1-c1ccc(Cl)cc1C(=O)c1ccccc1F` came in with a melting point of 140 to 142 °C. With `NCc1nc(-c2ncn3c2[C@@H]2CCN2C(=O)c2sccc2-3)no1` the figure was 235 to 238 °C.

Consider `COCCOc1c(F)c(Oc2ccc(S(C)(=O)=O)nc2)cc2cc(C3=NCC(CCO)S3)[nH]c12` (stereo unspecified), for which the melting point was 160 to 161 °C.
